“Also recorded” adds a separate entry of the source.

What all share (type): cell-based, mouse
The subject of test [1] is ESC-derived cardiac spheroids. The experiment in a line: cardiogenesis: cTnT+ cardiomyocytes in cardiac spheroids at day 9 (flow cytometry). To be noted: for effect on cardiogenesis: varying/increasing concentrations, cTnT+ at day 9. The source says:
Next, an embryonic stem cell (ESC) line (ESCHcn4-GFP; Tbx1-Cre Ai9) was established from the mice to determine if heart field specification can be recapitulated in a PSC system. It was hypothesized that a 3D multicellular system would better resemble heart field development in vivo, as early development is a highly dynamic process that involves tissue-tissue interactions between multiple cell types. Since CPCs are specified during mid-late gastrulation 7, 8, multicellular 3D spheroids were generated with the PSCs and treated them with various concentrations of Activin A and Bmp4 to determine whether induction of the early mesoderm influences heart field specification (FIGS. 1C and 1D). After 5 days of differentiation (120 h), GFP+ and RFP+ cells started to appear in the spheroids. The spheroids were analyzed for GFP+ and RFP+ cells by fluorescent activated cell sorting (FACS) at day 5.5 (132 h). […] The double positive GFP+/RFP+ cells correlated with the total number of GFP+ and RFP+ cells (FIG. 6J) and were sporadically interspersed within the GFP+ domain (FIG. 6K).
The overall effects on cardiogenesis were evaluated by analyzing the number of cardiomyocytes at day 9 (FIG. 6L).
Mouse ESCs and human iPSCs were maintained and differentiated as previously described^5, 43, 68 Briefly, mESCs were maintained on gelatin-coated dishes in maintenance medium (Glasgow minimum essential medium supplemented with 10% fetal bovine serum and […] Chir99021 and 1 μM PD98059 or 1000 U/ml ESGRO (Millipore, Billerica, Mass.), Glutamax, sodium pyruvate, MEM non-essential amino acids (Thermo Fisher Scientific). For spheroid formation and differentiation, mouse ESCs were plated in IMDM/Ham's F12 (Cellgro) (3:1) supplemented with N2, B27, penicillin/streptomycin, 2 mM GlutaMAX, 0.05% BSA, 5 ng/ml L-ascorbic acid (Sigma-Aldrich) and α-monothioglycerol (MTG; Sigma-Aldrich) at a final density of 100,000 cells/ml to allow spheroid formation. After 48 h spheroids were collected and transferred to ultra-low attachment plastic surface and induced for 40 hours with Activin A, Bmp4, Wnt3A, Wnt5A, Wnt11 (R&D Systems) alone or in combination. Human iPSCs were maintained in Geltrex-coated T25 flasks using Essential 8 medium. For spheroid formation and differentiation, hiPSCs were plated in RPMI plus B27 minus insulin with Bmp4 and CHIR99021 and incubated for 48 h. […]
Mouse embryos (E7.75) were dissected using forceps under a stereomicroscope (Zeiss) and regions of interest were dissociated and harvested using TrypLE. […] Single-cells were analyzed for RFP/GFP expression or sorted using a SH800 Cell sorter (Sony Biotechnologies). Live cells were analyzed for RFP and GFP expression and stained with antibodies targeting for the presence of appropriate markers. […] Data was analyzed using FlowJo software.
A general note: A flow cytometer gives signals particle by particle.

Test [2] has as its system canonical Wnt activity. Kind of test: Topflash luciferase assay. The settings on record: Bmp4 (1.25 ng/ml) alone; 88 h of differentiation. Here is the method: To test this, canonical Wnt activity was measured with its readout Topflash.
For Tbx1 and Tbx5 knockdown experiments, Tbx1 and Tbx5 ON-TARGETplus SMARTpool siRNA or scrambled siRNA (Dharmacon/Thermo Fisher Scientic) was used at 5 nM for cell transfection. Cells were transfected with Lipofectamine LTX (Life Technologies) in single-cell suspensions. For TOP-flash luciferase assays, mESCs were transfected with Topflash constructs and Renilla constructs and analyzed as previously described 5.

Test [3] has as its system ESC-derived cardiac spheroids. The experiment in a line: qPCR of FHF (tbx5, hcn4) and SHF (tbx1, fgf10) markers in treated spheroids. To be noted: Bmp4 (1.25 ng/ml) alone. Here is the method: To investigate the crosstalk between Bmp and Wnt signals, the spheroids were treated with Bmp4 and Wnts in combinations and analyzed expression levels of FHF (tbx5, hcn4) and SHF (tbx1, fgf10) markers.
(§1) Mouse ESCs and human iPSCs were maintained and differentiated as previously described^5, 43, 68 Briefly, mESCs were maintained on gelatin-coated dishes in maintenance medium (Glasgow minimum essential medium supplemented with 10% fetal bovine serum and […] Chir99021 and 1 μM PD98059 or 1000 U/ml ESGRO (Millipore, Billerica, Mass.), Glutamax, sodium pyruvate, MEM non-essential amino acids (Thermo Fisher Scientific). For spheroid formation and differentiation, mouse ESCs were plated in IMDM/Ham's F12 (Cellgro) (3:1) supplemented with N2, B27, penicillin/streptomycin, 2 mM GlutaMAX, 0.05% BSA, 5 ng/ml L-ascorbic acid (Sigma-Aldrich) and α-monothioglycerol (MTG; Sigma-Aldrich) at a final density of 100,000 cells/ml to allow spheroid formation. After 48 h spheroids were collected and transferred to ultra-low attachment plastic surface and induced for 40 hours with Activin A, Bmp4, Wnt3A, Wnt5A, Wnt11 (R&D Systems) alone or in combination. Human iPSCs were maintained in Geltrex-coated T25 flasks using Essential 8 medium. For spheroid formation and differentiation, hiPSCs were plated in RPMI plus B27 minus insulin with Bmp4 and CHIR99021 and incubated for 48 h. After 48 h media was changed to RPMI plus B27 minus insulin. The hiPSC line used in this study was developed by Dr. Linzhao Cheng, the Johns Hopkins University, and had was generated from a de-identified patient using an approved IRB protocol.
RNA isolation was performed using either RNeasy Micro Kit (Cat #74004, Qiagen) or […]® PicoPure® RNA Isolation Kit following the manufacturer's instructions, and cDNA was generated using the high-capacity cDNA reverse transcription kit (Applied Biosystems). qPCR reactions were performed using the Taqman (Applied Biosystems) or Sybr Select qPCR mix (Thermo Fisher) with indicated primers. Gene expression levels were normalized to Gapdh. For the clonal cell-fate analysis, single Isl1-Cre RFP+, Cxcr4− and Isl1-Cre RFP^+, Cxcr4^+ cells were sorted at day 5.5 into 384-well plates and allowed to grow and differentiate for 7 days. […] RNA was isolated from 24 wells with colonies from Cxcr4− and Cxcr4+ sorted cells, respectively. Ct values<30 were considered positive. All samples were also analyzed for gapdh to exclude false-positive results.
For orientation: Real-time PCR tracks product formation cycle by cycle.

Test [4] concerns ESC-derived cardiac spheroids (Hcn4-GFP; Tbx1-Cre; Ai9). The experiment in a line: heart field specification: Hcn4-GFP+ and Tbx1-Cre, RFP+ CPCs in cardiac spheroids by FACS at day 5.5. To be noted: increasing levels of the factor; day 5.5.
Description: Next, an embryonic stem cell (ESC) line (ESCHcn4-GFP; Tbx1-Cre Ai9) was established from the mice to determine if heart field specification can be recapitulated in a PSC system. It was hypothesized that a 3D multicellular system would better resemble heart field development in vivo, as early development is a highly dynamic process that involves tissue-tissue interactions between multiple cell types. Since CPCs are specified during mid-late gastrulation 7, 8, multicellular 3D spheroids were generated with the PSCs and treated them with various concentrations of Activin A and Bmp4 to determine whether induction of the early mesoderm influences heart field specification (FIGS. 1C and 1D).
IPA utilizes an input gene list and a curated database of literature-derived pathways to infer which canonical pathways are most significant to the input data set. The analysis was focused on pathways related to ‘organism growth and development’. […] The effect of Bmp signals was evaluated during heart field specification. In order to minimize the possibility of influencing heart field cells after induction, all of the data were analyzed within 12 hs after the appearance of GFP^+/RFP^+ cells.
as §1
Mouse embryos (E7.75) were dissected using forceps under a stereomicroscope (Zeiss) and regions of interest were dissociated and harvested using TrypLE. Embryoid bodies (EBs) and cells were dissociated and harvested using TrypLE. Single-cells were analyzed for RFP/GFP expression or sorted using a SH800 Cell sorter (Sony Biotechnologies). Live cells were analyzed for RFP and GFP expression and stained with antibodies targeting for the presence of appropriate markers. […] Data was analyzed using FlowJo software.

For the molecule “Bmp4: bone morphogenic protein (Bmp) 4, R&D Systems”, in test [1] (1.25 ng/ml Bmp4, day 9), the “number of cTnT+ cardiomyocytes” value is reported as > 30%. Moreover, the “difference in number of cTnT+ cardiomyocytes compared to 0.5 ng/ml Bmp4” value in test [1] (1.25 ng/ml vs 0.5 ng/ml Bmp4, day 9) is listed as > 10 fold. For the same molecule, the effect on cardiogenesis result in test [1] was “profound effect”. The topflash activity result in test [2] was “increased”. Also, in test [3], the “expression of FHF markers (tbx5, hcn4)” value is listed as “increased expression” and the “expression of SHF markers (tbx1, fgf10)” value is given as “increased expression”. In test [4], the “induction of GFP+ cells (FHF)” value is recorded as “promoted induction” and the “induction of RFP+ cells (SHF)” value is listed as “promoted induction”.

B1: Activin A: TGF-β protein; key ligand for Activin/TGF signaling (protein, UniProt P08476 311-426, looked up)
Inhibin beta A chain: GLECDGKVNICCKKQFFVSFKDIGWNDWIIAPSGYHANYCEGECPSHIAGTSGSSLSFHSTVINHYRMRGHSPFANLKSCCVPTKLRPMSMLYYDDGQNIIKKDIQNMIVEECGCS
modifications: Inhibin beta A chain
B1: in test [1], the effect on cardiogenesis result is given as “modest effect; also recorded: did not have a significant effect”. In addition, in test [4], the “induction of GFP+ cells (FHF)” value was “no apparent effect; also recorded: no overall effect” and the “induction of RFP+ cells (SHF)” value was “no apparent effect; also recorded: no overall effect”.

The record behind these values is patent US20220073883A1, “COMPOSITIONS AND METHODS FOR GENERATION OF HEART FIELD-SPECIFIC PROGENITOR CELLS” (The Johns Hopkins University, priority 2018, published 2022).
